Measured values taken from publication PMC2837466 (Journal of chromatography. B, Analytical technologies in …, 2010).

Molecular target: human serum albumin (HSA) (Homo sapiens, UniProt P02768)
Test: high-performance affinity chromatography, frontal analysis
Format: binding

Sequence of human serum albumin (HSA) (P02768 25-609): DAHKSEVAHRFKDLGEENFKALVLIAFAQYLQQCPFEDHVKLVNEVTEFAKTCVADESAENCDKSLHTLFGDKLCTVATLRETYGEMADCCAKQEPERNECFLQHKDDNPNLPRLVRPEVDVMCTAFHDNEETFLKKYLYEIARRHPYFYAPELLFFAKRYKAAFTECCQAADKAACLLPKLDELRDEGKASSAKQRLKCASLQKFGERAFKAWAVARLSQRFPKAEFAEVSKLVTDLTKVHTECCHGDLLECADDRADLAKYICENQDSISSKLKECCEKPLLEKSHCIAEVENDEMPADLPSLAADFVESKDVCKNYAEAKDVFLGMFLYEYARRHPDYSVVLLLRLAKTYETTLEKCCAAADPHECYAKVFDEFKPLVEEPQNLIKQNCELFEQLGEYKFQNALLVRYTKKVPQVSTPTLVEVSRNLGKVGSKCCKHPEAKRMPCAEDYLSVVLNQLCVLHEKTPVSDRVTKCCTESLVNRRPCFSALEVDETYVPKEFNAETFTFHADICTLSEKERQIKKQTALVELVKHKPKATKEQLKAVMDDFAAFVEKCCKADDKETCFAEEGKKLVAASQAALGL

A Kd of 21.3 µM was found for `CCN(CC)CC(=O)Nc1c(C)cccc1C` [lidocaine] in this work.
